Like-named read-outs stand apart in the source and are kept apart here.
Key:
[1] = system: M14 (amelanotic melanoma) cells; test: antiproliferation assay (72 h, CELLTITER 96), M14; assay type: cell-based, human; conditions: Homo sapiens
Method in brief: (§1)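 Human M14 melanoma and NCI-H460 lung carcinoma cells in RPMI-1640/10% FBS, seeded at 5×10^2–5×10^4 cells/well and adhered overnight, then exposed to seven compound concentrations for 72 h at 37 °C. Viable cells read by CellTiter 96 AQueous (MTS); IC50 = concentration giving 50% of maximal growth inhibition.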

[2] = system: NCI-H460 (large cell lung carcinoma) cells; test: antiproliferation assay (72 h, CELLTITER 96), NCI-H460; assay type: cell-based, human; conditions: Homo sapiens
Method in brief: as §1

K-562 cells = test: antiproliferation assay, K-562; assay type: cell-based; conditions: Homo sapiens, K562
Procedure: (§2) For the antiproliferation assay, NCI-H460 (large cell lung carcinoma) or M14 (amelanotic melanoma) cells were grown in RPMI-1640 with 10% FBS supplemented with L-glutamine and HEPES. Cells were seeded into 96-well plates at 5×10^2 to 5×10^4 cells/well and allowed to adhere overnight; the medium was then removed. A stock solution of test compound in DMSO was diluted in medium to generate a series of working solutions. Aliquots (100 μl) of the working solutions were then added to the appropriate test wells to expose cells to the final concentrations of compound in a total volume of 100 μl. Seven different concentrations were tested, with 2-5 wells per concentration. Camptothecin was used as a positive control; wells containing vehicle without compound were used as negative controls. Plates were kept for 72 h in a 37° C., 5% CO2 incubator. After incubation, viable cells were detected with the CELLTITER 96 AQueous Non-Radioactive Cell Proliferation Assay (Promega), and IC50 values were determined using GraphPad Prism 5 software.
(§3) Antiproliferation of several of the active compounds was tested against additional cell lines.

LOX-IMVI cells = test: antiproliferation assay, LOX-IMVI; assay type: cell-based; conditions: Homo sapiens
Procedure: as §2, §3

MES-SA/Dx5 cells = test: antiproliferation assay, MES-SA/Dx5; assay type: cell-based; conditions: Homo sapiens
Procedure: as §2, §3
(§4) Compound 4 was tested for antiproliferation activity against several paclitaxel-resistant human cancer cell lines.

NCI/ADR-RES cells = test: antiproliferation assay, NCI/ADR-RES; assay type: cell-based; conditions: Homo sapiens
Procedure: as §2, §3, §4

OVCAR-4 cells [3] = test: antiproliferation assay, OVCAR-4; assay type: cell-based; conditions: Homo sapiens
Procedure: as §2, §3

EKVX cells = test: antiproliferation assay, paclitaxel-resistant EKVX; assay type: cell-based; conditions: Homo sapiens
Procedure: as §2, §4

TK-10 cells [4] = test: antiproliferation assay, paclitaxel-resistant TK-10; assay type: cell-based; conditions: Homo sapiens
Procedure: as §2, §4

A498 cells = test: NCI-60 panel antiproliferation, A498; assay type: cell-based, human; conditions: Homo sapiens, NCI 60-cell panel
Procedure: (§5) Bifidenone and Compound 37 were tested for antiproliferation activity against the NCI-60 panel of cancer cell lines. COMPARE analysis was then conducted to compare the activity “fingerprint” of bifidenone to those of known classes of compounds (Zhou, B.-N., Hoch, J. M., Johnson, R. K., Mattern, M. R., Eng, W.-K., Ma, J., Hecht, S. M., Newman, D. J., Kingston, D. G. I., 2000. Use of COMPARE Analysis to Discover New Natural Product Drugs: Isolation of Camptothecin and 9-Methoxycamptothecin from a New Source. Journal of Natural Products 63, 1273-1276.).

A549 cells = test: NCI-60 panel antiproliferation, A549; assay type: cell-based, human; conditions: Homo sapiens, NCI 60-cell panel
Procedure: as §5

ACHN cells = test: NCI-60 panel antiproliferation, ACHN; assay type: cell-based, human; conditions: Homo sapiens, NCI 60-cell panel
Procedure: as §5

Caki-1 cells = test: NCI-60 panel antiproliferation, Caki-1; assay type: cell-based, human; conditions: Homo sapiens, NCI 60-cell panel
Procedure: as §5

DU-145 cells = test: NCI-60 panel antiproliferation, DU-145; assay type: cell-based, human; conditions: Homo sapiens, NCI 60-cell panel
Procedure: as §5

HCC-2998 cells = test: NCI-60 panel antiproliferation, HCC-2998; assay type: cell-based, human; conditions: Homo sapiens, NCI 60-cell panel
Procedure: as §5

HOP-62 cells = test: NCI-60 panel antiproliferation, HOP-62; assay type: cell-based, human; conditions: Homo sapiens, NCI 60-cell panel
Procedure: as §5

HT29 cells = test: NCI-60 panel antiproliferation, HT29; assay type: cell-based, human; conditions: Homo sapiens, HT-29, NCI 60-cell panel
Procedure: as §5

MDA-MB-435 cells = test: NCI-60 panel antiproliferation, MDA-MB-435; assay type: cell-based, human; conditions: Homo sapiens, NCI 60-cell panel
Procedure: as §5

MDA-MB-468 cells = test: NCI-60 panel antiproliferation, MDA-MB-468; assay type: cell-based, human; conditions: Homo sapiens, NCI 60-cell panel
Procedure: as §5

NCI-H23 cells = test: NCI-60 panel antiproliferation, NCI-H23; assay type: cell-based, human; conditions: Homo sapiens, NCI 60-cell panel
Procedure: as §5

NCI-H322M cells = test: NCI-60 panel antiproliferation, NCI-H322M; assay type: cell-based, human; conditions: Homo sapiens, NCI 60-cell panel
Procedure: as §5

OVCAR-3 cells = test: NCI-60 panel antiproliferation, OVCAR-3; assay type: cell-based, human; conditions: Homo sapiens, NCI 60-cell panel
Procedure: as §5

OVCAR-4 cells [5] = test: NCI-60 panel antiproliferation, OVCAR-4; assay type: cell-based, human; conditions: Homo sapiens, NCI 60-cell panel
Procedure: as §5

OVCAR-5 cells = test: NCI-60 panel antiproliferation, OVCAR-5; assay type: cell-based, human; conditions: Homo sapiens, NCI 60-cell panel
Procedure: as §5

PC-3 cells = test: NCI-60 panel antiproliferation, PC-3; assay type: cell-based, human; conditions: Homo sapiens, NCI 60-cell panel
Procedure: as §5

SF-268 cells = test: NCI-60 panel antiproliferation, SF-268; assay type: cell-based, human; conditions: Homo sapiens, NCI 60-cell panel
Procedure: as §5

SF-295 cells = test: NCI-60 panel antiproliferation, SF-295; assay type: cell-based, human; conditions: Homo sapiens, NCI 60-cell panel
Procedure: as §5

SK-Mel-5 cells = test: NCI-60 panel antiproliferation, SK-MEL-5; assay type: cell-based, human; conditions: Homo sapiens, NCI 60-cell panel
Procedure: as §5

SN12C cells = test: NCI-60 panel antiproliferation, SN12C; assay type: cell-based, human; conditions: Homo sapiens, NCI 60-cell panel
Procedure: as §5

SNB-19 cells = test: NCI-60 panel antiproliferation, SNB-19; assay type: cell-based, human; conditions: Homo sapiens, NCI 60-cell panel
Procedure: as §5

SNB-75 cells = test: NCI-60 panel antiproliferation, SNB-75; assay type: cell-based, human; conditions: Homo sapiens, NCI 60-cell panel
Procedure: as §5

SR cells = test: NCI-60 panel antiproliferation, SR; assay type: cell-based, human; conditions: Homo sapiens, NCI 60-cell panel
Procedure: as §5

TK-10 cells [6] = test: NCI-60 panel antiproliferation, TK-10; assay type: cell-based, human; conditions: Homo sapiens, NCI 60-cell panel
Procedure: as §5

U251 cells = test: NCI-60 panel antiproliferation, U251; assay type: cell-based, human; conditions: Homo sapiens, U-251, NCI 60-cell panel
Procedure: as §5

UACC-62 cells = test: NCI-60 panel antiproliferation, UACC-62; assay type: cell-based, human; conditions: Homo sapiens, NCI 60-cell panel
Procedure: as §5

**Q.** What does the source list for `C=CC[C@H]1C[C@]2([C@H](C)Cc3cc(O)c(OC)cc3F)OCOC2=CC1=O` (relative stereo) [Compound 4, 6-allyl-7a-(1-(2-fluoro-5-hydroxy-4-methoxyphenyl)propan-2-yl)-7,7a-dihydrobenzo[d][1,3]dioxol-5(6H)-one]?
**A.** IC50 ([1]; Table 3): 0.011 µM; IC50 ([2]; NCI-H460, Table 3, read-out: NCI-H460 IC50): 0.015 µM; IC50 ([2]; NCI-H460, as quoted in the pharmacokinetics text, read-out: IC50 against NCI-H460 human lung cancer cells): 0.015 µM; IC50 (K-562 cells): 0.013 µM; IC50 (LOX-IMVI cells): 0.011 µM; IC50 (MES-SA/Dx5 cells; MES-SA/Dx5, MES-SA/Dx5): 0.013 µM; IC50 (MES-SA/Dx5 cells; MES-SA/Dx5, paclitaxel-resistant MES-SA/Dx5): 0.014 µM; IC50 (NCI/ADR-RES cells): 0.0091 µM; IC50 (NCI/ADR-RES cells; paclitaxel-resistant NCI/ADR-RES): 0.009 µM; IC50 (OVCAR-4 cells [3]): 0.0064 µM; IC50 (EKVX cells): 0.007 µM; IC50 (TK-10 cells [4]): 0.007 µM

**Q.** Which results are given for `C=CC[C@H]1C[C@]2([C@@H](C)Cc3ccc(OC)c(F)c3)OCOC2=CC1=O` [Compound 37, (6S,7aR)-6-allyl-7a-((S)-1-(3-fluoro-4-methoxyphenyl)propan-2-yl)-7,7a-dihydrobenzo[d][1,3]dioxol-5(6H)-one]?
**A.** IC50 ([1]; Table 4): 0.008 µM; IC50 ([2]; NCI-H460, Table 4, read-out: NCI-H460 IC50): 0.085 µM; IC50 (A498 cells): 0.058 µM; IC50 (A549 cells): 0.055 µM; IC50 (ACHN cells): 0.032 µM; IC50 (Caki-1 cells): 0.097 µM; IC50 (DU-145 cells): 0.187 µM; IC50 (HCC-2998 cells): 0.129 µM; IC50 (HOP-62 cells): 0.102 µM; IC50 (HT29 cells): 0.088 µM; IC50 (MDA-MB-435 cells): 0.028 µM; IC50 (MDA-MB-468 cells): 0.059 µM; IC50 (NCI-H23 cells): 0.123 µM; IC50 (NCI-H322M cells): 0.125 µM; IC50 (OVCAR-3 cells): 0.04 µM; IC50 (OVCAR-4 cells [5]): 0.117 µM; IC50 (OVCAR-5 cells): 0.119 µM; IC50 (PC-3 cells): 0.07 µM; IC50 (SF-268 cells): 0.623 µM; IC50 (SF-295 cells): 0.048 µM; IC50 (SK-Mel-5 cells): 0.06 µM; IC50 (SN12C cells): 0.35 µM; IC50 (SNB-19 cells): 0.073 µM; IC50 (SNB-75 cells): 0.049 µM; IC50 (SR cells): 0.014 µM; IC50 (TK-10 cells [6]): 0.107 µM; IC50 (U251 cells): 0.123 µM; IC50 (UACC-62 cells): 0.035 µM
